Converted amounts (≈) assume the structure as drawn. “And” between values parts separate entries of the source, which are not always exact repeats. Identical values can stand only once. One block for each compound: values may come before it.
What was measured:
Staphylococcus aureus [1] = test: Antibacterial activity against Staphylococcus aureus ATCC 29213 by CLSI broth microdilution method; type: functional
Staphylococcus aureus [2] = test: Antibacterial activity against Staphylococcus aureus ATCC 29223 by CLSI broth microdilution method; type: functional
Enterococcus faecalis [3] = test: Antibacterial activity against Enterococcus faecalis ATCC 29212 by CLSI broth microdilution method; type: functional
Escherichia coli [4] = test: Antibacterial activity against Escherichia coli ATCC 25922 by CLSI broth microdilution method; type: functional
Pseudomonas aeruginosa [5] = test: Antibacterial activity against Pseudomonas aeruginosa ATCC 27853 by CLSI broth microdilution method; type: functional
Staphylococcus aureus [6] = test: Bactericidal activity against Staphylococcus aureus ATCC 29213; type: functional
Staphylococcus aureus [7] = test: Bactericidal activity against Staphylococcus aureus ATCC 29223; type: functional
Enterococcus faecalis [8] = test: Bactericidal activity against Enterococcus faecalis ATCC 29212; type: functional
Escherichia coli [9] = test: Bactericidal activity against Escherichia coli ATCC 25922; type: functional
Proteus sp. = test: Antibacterial activity against […] resistant Proteus sp. clinical isolate 17 assessed as reduction in bacterial growth incubated for 24 hrs by CLSI broth microdilution method; type: functional; details: Proteus sp. (in: enterobacteria)
Klebsiella sp. [10] = test: Antibacterial activity against […] resistant Klebsiella sp. clinical isolate 12 assessed as reduction in bacterial growth incubated for 24 hrs by CLSI broth microdilution method; type: functional
Klebsiella sp. [11] = test: Antibacterial activity against […] resistant Klebsiella sp. clinical isolate 11 assessed as reduction in bacterial growth incubated for 24 hrs by CLSI broth microdilution method; type: functional
Pseudomonas = test: Antibacterial activity against methicillin- resistant Pseudomonas spp. clinical isolate 6 assessed as reduction in bacterial growth incubated for 24 hrs by CLSI broth microdilution method; type: functional
Acinetobacter [12] = test: Antibacterial activity against […] resistant Acinetobacter spp. clinical isolate 5 assessed as reduction in bacterial growth incubated for 24 hrs by CLSI broth microdilution method; type: functional
Acinetobacter [13] = test: Antibacterial activity against […] resistant Acinetobacter spp. clinical isolate 3 assessed as reduction in bacterial growth incubated for 24 hrs by CLSI broth microdilution method; type: functional
Acinetobacter [14] = test: Antibacterial activity against […] resistant Acinetobacter spp. clinical isolate 1 assessed as reduction in bacterial growth incubated for 24 hrs by CLSI broth microdilution method; type: functional
[15] = Antibacterial activity against […] resistant Moraxella sp.829 clinical isolate assessed as reduction in bacterial growth incubated for 24 hrs by CLSI broth microdilution method; type: functional; details: Moraxella catarrhalis
[16] = Antibacterial activity against […] resistant Moraxella sp.765 clinical isolate assessed as reduction in bacterial growth incubated for 24 hrs by CLSI broth microdilution method; type: functional; details: Moraxella catarrhalis
[17] = Antibacterial activity against […] resistant Moraxella sp.764 clinical isolate assessed as reduction in bacterial growth incubated for 24 hrs by CLSI broth microdilution method; type: functional; details: Moraxella catarrhalis
Staphylococcus aureus [18] = test: Antibacterial activity against methicillin- resistant Staphylococcus aureus 25 clinical isolate assessed as reduction in bacterial growth incubated for 24 hrs by CLSI broth microdilution method; type: functional
Staphylococcus aureus [19] = test: Antibacterial activity against methicillin- resistant Staphylococcus aureus 2020 clinical isolate assessed as reduction in bacterial growth incubated for 24 hrs by CLSI broth microdilution method; type: functional
[20] = system: Staphylococcus intermedius; test: Antibacterial activity against methicillin- resistant Staphylococcus intermedius 1143 clinical isolate assessed as reduction in bacterial growth incubated for 24 hrs by CLSI broth microdilution method; type: functional
Staphylococcus aureus [21] = test: Antibacterial activity against methicillin- resistant Staphylococcus aureus 983 clinical isolate assessed as reduction in bacterial growth incubated for 24 hrs by CLSI broth microdilution method; type: functional
Staphylococcus aureus [22] = test: Antibacterial activity against methicillin- resistant Staphylococcus aureus 967 clinical isolate assessed as reduction in bacterial growth incubated for 24 hrs by CLSI broth microdilution method; type: functional
[23] = system: Staphylococcus haemolyticus; test: Antibacterial activity against methicillin- resistant Staphylococcus haemolyticus 837 assessed as reduction in bacterial growth incubated for 24 hrs by CLSI broth microdilution method; type: functional
[24] = Selectivity index, ratio of CC50 for human HSF cells to MIC for Pseudomonas aeruginosa ATCC 27853; type: toxicity; details: for selectivity ratio: HSF cells
[25] = Selectivity index, ratio of CC50 for human HSF cells to MIC for Klebsiella pneumoniae ATCC 1813; type: toxicity; details: for selectivity ratio: HSF cells
Pseudomonas aeruginosa [26] = test: Bactericidal activity against Pseudomonas aeruginosa ATCC 27853 assessed as reduction in bacterial growth incubated for 24 hrs followed by replating on MH broth and further incubated for 24 hrs by CLSI broth microdilution method; type: functional
Klebsiella pneumoniae [27] = test: Bactericidal activity against Klebsiella pneumoniae ATCC 1813 assessed as reduction in bacterial growth incubated for 24 hrs followed by replating on MH broth and further incubated for 24 hrs by CLSI broth microdilution method; type: functional
Escherichia coli [28] = test: Bactericidal activity against Escherichia coli ATCC 25922 assessed as reduction in bacterial growth incubated for 24 hrs followed by replating on MH broth and further incubated for 24 hrs by CLSI broth microdilution method; type: functional
Bacillus subtilis [29] = test: Bactericidal activity against Bacillus subtilis 168 assessed as reduction in bacterial growth incubated for 24 hrs followed by replating on MH broth and further incubated for 24 hrs by CLSI broth microdilution method; type: functional; details: Bacillus subtilis, 168, 24 h
[30] = system: Staphylococcus epidermidis; test: Bactericidal activity against Staphylococcus epidermidis assessed as reduction in bacterial growth incubated for 24 hrs followed by replating on MH broth and further incubated for 24 hrs by CLSI broth microdilution method; type: functional; details: Staphylococcus epidermidis, read-out: MBC
Staphylococcus aureus [31] = test: Bactericidal activity against Staphylococcus aureus ATCC 29213 assessed as reduction in bacterial growth incubated for 24 hrs followed by replating on MH broth and further incubated for 24 hrs by CLSI broth microdilution method; type: functional; details: Staphylococcus aureus, ATCC 29213; time 48 hrs; read-out: MBC
[32] = system: Staphylococcus epidermidis; test: Antibacterial activity against Staphylococcus epidermidis assessed as reduction in bacterial growth incubated for 24 hrs by CLSI broth microdilution method; type: functional
Bacillus subtilis [33] = test: Antibacterial activity against Bacillus subtilis 168 assessed as reduction in bacterial growth incubated for 24 hrs by CLSI broth microdilution method; type: functional
Pseudomonas aeruginosa [34] = test: Antibacterial activity against Pseudomonas aeruginosa ATCC 27853 assessed as reduction in bacterial growth incubated for 24 hrs by CLSI broth microdilution method; type: functional
[35] = Selectivity index, ratio of CC50 for human HSF cells to MIC for Escherichia coli ATCC 25922; type: toxicity
[36] = Selectivity index, ratio of CC50 for human HSF cells to MIC for Bacillus subtilis 168; type: toxicity; details: HSF cells
[37] = Selectivity index, ratio of CC50 for human HSF cells to MIC for Staphylococcus epidermidis; type: toxicity; details: HSF cells
[38] = Selectivity index, ratio of CC50 for human HSF cells to MIC for Staphylococcus aureus ATCC 29213; type: toxicity; details: HSF cells
[39] = Cytotoxicity against human HSF cells assessed as reduction in cell viability incubated for 72 hrs by MTT assay; type: cell-based, HSF (VGS)
Escherichia coli [40] = test: Antibacterial activity against Escherichia coli ATCC 25922 assessed as reduction in bacterial growth incubated for 24 hrs by CLSI broth microdilution method; type: functional; details: Escherichia coli, ATCC 25922, 24 h, read-out: MIC
Staphylococcus aureus [41] = test: Antibacterial activity against Staphylococcus aureus ATCC 29213 assessed as reduction in bacterial growth incubated for 24 hrs by CLSI broth microdilution method; type: functional; details: Staphylococcus aureus, ATCC 29213, 24 h, read-out: MIC
Klebsiella pneumoniae [42] = test: Antibacterial activity against Klebsiella pneumoniae ATCC 1813 assessed as reduction in bacterial growth incubated for 24 hrs by CLSI broth microdilution method; type: functional; details: Klebsiella pneumoniae, ATCC 1813, 24 h, read-out: MIC
[43] = Enterococcus faecalis, ATCC 29212, read-out: MIC
[44] = Staphylococcus epidermidis, read-out: MIC
[45] = Bacillus subtilis, 168, 24 h, read-out: MIC
[46] = Pseudomonas aeruginosa, ATCC 27853, 24 h, read-out: MIC

MIC (Staphylococcus aureus [1]): 8 µg/mL
MIC (Staphylococcus aureus [2]): 8 µg/mL
MIC (Enterococcus faecalis [3]; [43]): 32 µg/mL
MIC (Escherichia coli [4]): 4 µg/mL
MIC (Pseudomonas aeruginosa [5]): 32 µg/mL
Compound: N=C(N)NCCc1cc2c(O)c(c1)Cc1cc(CCNC(=N)N)cc(c1O)Cc1cc(CCNC(=N)N)cc(c1O)Cc1cc(CCNC(=N)N)cc(c1O)C2.O=C(O)C(F)(F)F.O=C(O)C(F)(F)F.O=C(O)C(F)(F)F.O=C(O)C(F)(F)F
MBC (Staphylococcus aureus [6]): 256 µg/mL
MBC (Staphylococcus aureus [7]): 256 µg/mL
MBC (Enterococcus faecalis [8]): > 256 µg/mL
MBC (Escherichia coli [9]): 256 µg/mL

MIC (Enterococcus faecalis [3]): 4 µg/mL and 8 µg/mL
MIC (Enterococcus faecalis [3]; [43]): 8 µg/mL
Compound: CC(C)(C)c1cc2c(OCCCNC(=N)N)c(c1)Cc1cc(C(C)(C)C)cc(c1OCCCNC(=N)N)Cc1cc(C(C)(C)C)cc(c1OCCCNC(=N)N)Cc1cc(C(C)(C)C)cc(c1OCCCNC(=N)N)C2.O=C(O)C(F)(F)F.O=C(O)C(F)(F)F.O=C(O)C(F)(F)F.O=C(O)C(F)(F)F

Compound: CCCCCCCCCC[N+](C)(C)CCCNC(=O)COc1c2cc(C(C)(C)C)cc1Sc1cc(C(C)(C)C)cc(c1OCC(=O)NCCC[N+](C)(C)CCCCCCCCCC)Sc1cc(C(C)(C)C)cc(c1OCC(=O)NCCC[N+](C)(C)CCCCCCCCCC)Sc1cc(C(C)(C)C)cc(c1OCC(=O)NCCC[N+](C)(C)CCCCCCCCCC)S2.[Cl-].[Cl-].[Cl-].[Cl-]
MIC (Proteus sp.): > 64 µg/mL
MIC (Klebsiella sp. [10]): > 64 µg/mL
MIC (Klebsiella sp. [11]): > 64 µg/mL
MIC (Pseudomonas): > 64 µg/mL
MIC (Acinetobacter [12]): > 64 µg/mL
MIC (Acinetobacter [13]): > 64 µg/mL
MIC (Acinetobacter [14]): > 64 µg/mL
MIC [15]: > 64 µg/mL
MIC [16]: > 64 µg/mL
MIC [17]: > 64 µg/mL
MIC (Staphylococcus aureus [18]): 4 µg/mL
MIC (Staphylococcus aureus [19]): 32 µg/mL
MIC [20]: 2 µg/mL
MIC (Staphylococcus aureus [21]): 32 µg/mL
MIC (Staphylococcus aureus [22]): 32 µg/mL
MIC [23]: 32 µg/mL
Ratio [24]: < 0.5
selectivity ratio [24]: 0.5
Ratio [25]: 1 and 3
MBC (Pseudomonas aeruginosa [26]): > 64 µg/mL
MBC (Klebsiella pneumoniae [27]): 32 µg/mL
MBC (Escherichia coli [28]): 64 µg/mL
MBC (Bacillus subtilis [29]): 32 µg/mL
MBC [30]: 16 µg/mL
MBC (Staphylococcus aureus [31]): 8 µg/mL
MIC [32]: 4 µg/mL
MIC [32, 44]: 8 µg/mL
MIC (Bacillus subtilis [33]): 4 µg/mL
MIC (Bacillus subtilis [33]; [45]): 4 µg/mL
MIC (Pseudomonas aeruginosa [34]; 24 h): >64 µg/mL
MIC (Pseudomonas aeruginosa [34]; [46]): 64 µg/mL

Compound: [H]/N=C(\N/C(=N/[H])NCCCCCCNC(=N)NC(=N)Nc1ccc(Cl)cc1)Nc1ccc(Cl)cc1 [CHLORHEXIDINE]
selectivity ratio [24]: 1.37
selectivity ratio [25]: 2.74
selectivity ratio [35]: 5.48
selectivity ratio [36]: 2.74
selectivity ratio [37]: 5.48
selectivity ratio [38]: 2.74
CC50 at 72 h [39]: 5.48 µg/mL (≈ 10.8 µM)
MIC (Escherichia coli [40]): 1 µg/mL (≈ 1.98 µM)
MIC (Staphylococcus aureus [41]): 2 µg/mL (≈ 3.96 µM)
MIC [32, 44]: 1 µg/mL (≈ 1.98 µM)
MIC (Bacillus subtilis [33]; [45]): 2 µg/mL (≈ 3.96 µM)
MIC (Klebsiella pneumoniae [42]): 2 µg/mL (≈ 3.96 µM)
MIC (Pseudomonas aeruginosa [34]; [46]): 4 µg/mL (≈ 7.91 µM)

Compound: CCCCCCCCCCCCCC(=O)NCCC[N+](C)(C)Cc1ccccc1.[Cl-] [MIRAMISTIN]
MIC (Proteus sp.): > 64 µg/mL
MIC (Klebsiella sp. [10]): > 64 µg/mL
MIC (Klebsiella sp. [11]): 64 µg/mL
MIC (Pseudomonas): > 64 µg/mL
MIC (Acinetobacter [12]): > 64 µg/mL
MIC (Acinetobacter [13]): 64 µg/mL
MIC (Acinetobacter [14]): 64 µg/mL
MIC [15]: 32 µg/mL
MIC [16]: 64 µg/mL
MIC [17]: 64 µg/mL
MIC (Staphylococcus aureus [18]): 0.5 µg/mL
MIC (Staphylococcus aureus [19]): 8 µg/mL
MIC [20]: 8 µg/mL
MIC (Staphylococcus aureus [21]): 4 µg/mL
MIC (Staphylococcus aureus [22]): 16 µg/mL
MIC [23]: 64 µg/mL
selectivity ratio [24]: 0.15
selectivity ratio [25]: 0.15
selectivity ratio [35]: 0.15
selectivity ratio [36]: 1.2
selectivity ratio [37]: 2.4
selectivity ratio [38]: 0.6
CC50 at 72 h [39]: 9.4 µg/mL
MBC (Pseudomonas aeruginosa [26]): 64 µg/mL
MBC (Klebsiella pneumoniae [27]): 64 µg/mL
MBC (Escherichia coli [28]): 64 µg/mL
MBC (Bacillus subtilis [29]): 64 µg/mL
MBC [30]: 32 µg/mL
MBC (Staphylococcus aureus [31]): 32 µg/mL
MIC (Escherichia coli [40]): 64 µg/mL
MIC (Staphylococcus aureus [41]): 16 µg/mL
MIC [32, 44]: 4 µg/mL
MIC (Bacillus subtilis [33]; [45]): 8 µg/mL
MIC (Klebsiella pneumoniae [42]): 64 µg/mL
MIC (Pseudomonas aeruginosa [34]; [46]): 64 µg/mL

— ChEMBL document CHEMBL4673355, “Thiacalixarene based quaternary ammonium salts as promising antibacterial agents” (Bioorg Med Chem, 2021)
